From US20230172204A1 (BASF SE, priority 2020, published 2023)

Key:
[1] = system: Phakopsora pachyrhizi (F129L); assay: Protective control of soybean rust on soybeans (PHAKPA P2); format: in vivo; settings: for % PHAKPA (F129L) Disease level P2 at 4 ppm: protective P2, 4 ppm; for % PHAKPA (F129L) Disease level P2 at 4 ppm / % PHAKPA (F129L) Disease level P2 at 16 ppm: soybean rust F129L; for % PHAKPA (F129L) Disease level P2 at 16 ppm: protective P2, 16 ppm; for PHAKPA (F129L) Disease level (%) P2 at 16 ppm / PHAKPA (F129L) Disease level (%) P2 at 4 ppm: P2 protective, % diseased leaf area
[2] = system: Phakopsora pachyrhizi (F129L); assay: Protective control of soybean rust on soybeans (PHAKPA P6); format: in vivo; settings: for % PHAKPA (F129L) Disease level P6 at 4 ppm: protective P6, 4 ppm; for % PHAKPA (F129L) Disease level P6 at 4 ppm / % PHAKPA (F129L) Disease level P6 at 16 ppm: soybean rust F129L; for % PHAKPA (F129L) Disease level P6 at 16 ppm: protective P6, 16 ppm; for PHAKPA (F129L) Disease level (%) P6 at 16 ppm / PHAKPA (F129L) Disease level (%) P6 at 4 ppm: P6 protective, % diseased leaf area

| Compound | % PHAKPA (F129L) Disease level P2 at 4 ppm [1] [%] | % PHAKPA (F129L) Disease level P2 at 16 ppm [1] [%] | % PHAKPA (F129L) Disease level P6 at 4 ppm [2] [%] | % PHAKPA (F129L) Disease level P6 at 16 ppm [2] [%] | PHAKPA (F129L) Disease level (%) P2 at 16 ppm [1] [%] | PHAKPA (F129L) Disease level (%) P6 at 16 ppm [2] [%] | PHAKPA (F129L) Disease level (%) P2 at 4 ppm [1] [%] | PHAKPA (F129L) Disease level (%) P6 at 4 ppm [2] [%] |
| --- | --- | --- | --- | --- | --- | --- | --- | --- |
| CNC(=O)/C(=N/OC)c1cccc(C)c1CO/N=C(\C)c1cc(C2CC2)cc(C(F)(F)F)c1 [compound 150] | 56 | 8 | 70 | 29 |  |  |  |  |
| CNC(=O)/C(=N/OC)c1cccc(C)c1CO/N=C(\C)c1c(F)cc(Br)cc1C(F)(F)F [compound 358] | 77 | 17 | 83 | 18 |  |  |  |  |
| CNC(=O)/C(=N/OC)c1cccc(C)c1CO/N=C(\C)c1ccccc1Br [Ex. 120] | 43 | 4 | 90 | 8 | 6 | 15 |  |  |
| CO/N=C(/C(=O)OC)c1cccc(C)c1CO/N=C(\C)c1ccc(C)c(Cl)c1 [compound 163] | 20 | 1 | 47 | 9 |  |  |  |  |
| CNC(=O)/C(=N/OC)c1cccc(C)c1CO/N=C(\C)c1ccccc1OC(F)F [compound 252] | 50 | 3 | 87 | 32 |  |  |  |  |
| CNC(=O)/C(=N/OC)c1cccc(C)c1CO/N=C(\C)c1ccc(-c2ccccc2)cc1C(F)(F)F [compound 413] | 40 | 15 | 33 | 15 |  |  |  |  |
| C#Cc1cccc(/C(C)=N/OCc2c(C)cccc2/C(=N\OC)C(=O)NC)c1F [compound 401] | 17 | 5 | 32 | 4 |  |  |  |  |
| CNC(=O)/C(=N/OC)c1cccc(C)c1CO/N=C(\C)c1ccc(OC(F)(F)F)cc1 [compound 136] | 1 | 0 | 3 | 2 |  |  |  |  |
| CO/N=C(/C)c1ccc(/C(C)=N/OCc2c(C)cccc2/C(=N\OC)C(=O)OC)c(OC(F)(F)F)c1 [compound 418] | 70 | 33 | 73 | 57 |  |  |  |  |
| CO/N=C(/C(=O)OC)c1cccc(C)c1CO/N=C(\C)c1c(F)cccc1F [compound 213] | 50 | 3 | 40 | 11 |  |  |  |  |
| CO/N=C(/C(=O)OC)c1cccc(C)c1CO/N=C(/c1cccc(C(F)(F)F)c1)C(C)C [compound 206] | 100 | 67 | 100 | 90 |  |  |  |  |
| CNC(=O)/C(=N/OC)c1cccc(C)c1CO/N=C(\C)c1c(F)ccc(F)c1OC(F)(F)F [compound 346] | 4 | 0 | 5 | 0 |  |  |  |  |
| CO/N=C(/C(=O)OC)c1cccc(C)c1CO/N=C(\C)c1cccc(C2CC2)c1 [compound 297] | 90 | 37 | 87 | 37 |  |  |  |  |
| CCc1cccc(/C(=N\OC)C(=O)NC)c1CO/N=C(\C)c1cccc(C(F)(F)F)c1 [compound 62] | 43 | 0 | 60 | 3 |  |  |  |  |
| CNC(=O)/C(=N/OC)c1cccc(C)c1CO/N=C(\C)c1c(Cl)cccc1C(F)(F)F [compound 290] | 92 | 14 | 83 | 21 |  |  |  |  |
| CNC(=O)/C(=N/OC)c1ccccc1CO/N=C(\C)c1ccccc1 [reference compound] |  |  |  |  |  |  | 87 | 100 |
| CCc1ccc(/C(C)=N/OCc2ccccc2/C(=N\OC)C(=O)NC)cc1 [reference compound] |  |  |  |  |  |  | 35 | 83 |
| CNC(=O)/C(=N/OC)c1cccc(C)c1CO/N=C(\C)c1ccc(OC)cc1C(F)(F)F [compound 324] | 2 | 1 | 12 | 0 |  |  |  |  |
| C=Cc1cc(/C(C)=N/OCc2c(C)cccc2/C(=N\OC)C(=O)NC)cc(C(F)(F)F)c1 [compound 152] | 24 | 1 | 38 | 7 |  |  |  |  |
| CNC(=O)/C(=N/OC)c1cccc(C)c1CO/N=C(\C)c1c(F)cccc1Cl [compound 284] | 63 | 44 | 62 | 34 |  |  |  |  |
| CNC(=O)/C(=N/OC)c1cccc(C)c1CO/N=C(\C)c1cccc(F)c1F [compound 178] | 6 | 0 | 2 | 0 |  |  |  |  |
| CNC(=O)/C(=N/OC)c1cccc(C)c1CO/N=C(\C)c1ccc(Br)cc1C(F)(F)F [compound 258] | 32 | 7 | 73 | 8 |  |  |  |  |
| CO/N=C(/C(=O)OC)c1cccc(C)c1CO/N=C(\C)c1ccc(Cl)c(Cl)c1 [compound 40] | 40 | 18 | 63 | 22 |  |  |  |  |
| CO/N=C(/C(=O)OC)c1cccc(C)c1CO/N=C(\C)c1ccc(F)cc1F [compound 266] | 67 | 18 | 90 | 43 |  |  |  |  |
| CNC(=O)/C(=N/OC)c1ccccc1CO/N=C(\C)c1ccccc1OC [reference compound] |  |  |  |  | 87 | 80 |  |  |
| CO/N=C(/C(=O)OC)c1cccc(C)c1CO/N=C(\C)c1c(C)cccc1F [compound 285] | 87 | 50 | 90 | 35 |  |  |  |  |
| CO/N=C(/C(=O)OC)c1cccc(C)c1CO/N=C(\C)c1ccc(OC(F)(F)F)cc1C [compound 259] | 80 | 17 | 93 | 40 |  |  |  |  |
| CO/N=C(/C(=O)OC)c1cccc(C)c1CO/N=C(\C)c1ccccc1F [Ex. 1, Methyl (2E)-2-[2-[[(E)-3-(2-fluorophenyl)ethylideneamino]oxymethyl]-3-methyl-phenyl]-2-methoxyimino-acetate] | 80 | 27 | 90 | 56 | 28 | 47 |  |  |
| COC/C(=N\OCc1c(C)cccc1/C(=N\OC)C(=O)OC)c1cccc(C(F)(F)F)c1 [compound 191] | 77 | 2 | 83 | 22 |  |  |  |  |
| CNC(=O)/C(=N/OC)c1cccc(C)c1CO/N=C(\C)c1cccc(F)c1OC(F)(F)F [compound 354] | 17 | 2 | 21 | 4 |  |  |  |  |
